Measurements from PubChem BioAssay AID248 (DTP/NCI, 2004).
Values joined by “and” are separate entries in the source; they are usually repeats but may differ in a detail not shown here. Equal entries are not always repeated. Toxic doses and inconclusive results are not listed. Cut-off read from the data, not from the text of the source: active = T/C of 150% or more; inactive = T/C below 125%. Peptide text beside a SMILES is read from it.

Test system: L1210 leukemia ip in BDF1 mice, survival T/C
Experiment: NCI In Vivo Anticancer Drug Screen. Data for tumor model L1210 Leukemia (intraperitoneal) in B6D2F1 (BDF1) mice
Conditions: endpoint: mean survival time, higher = longer survival
Procedure, shortened: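 Survival endpoint. Drug-treated group vs vehicle group, expressed as T divided by C. Tumor passaged by transplantation.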

[1] = dose: 100.0 mg/kg/injection, schedule: Q01DX009 (ip), vehicle: saline with Tween-80
[2] = dose: 200.0 mg/kg/injection, schedule: Q01DX009 (ip), vehicle: saline with Tween-80
[3] = dose: 400.0 mg/kg/injection, schedule: Q01DX009 (ip), vehicle: saline with Tween-80
[4] = dose: 100.0 mg/kg/injection, schedule: Q01DX001 (ip), vehicle: carboxymethylcellulose (CMC)
[5] = dose: 200.0 mg/kg/injection, schedule: Q01DX001 (ip), vehicle: carboxymethylcellulose (CMC)
[6] = dose: 400.0 mg/kg/injection, schedule: Q01DX001 (ip), vehicle: carboxymethylcellulose (CMC)
[7] = dose: 100.0 mg/kg/injection, schedule: Q04DX002 (ip), vehicle: Klucel (hydroxypropylcellulose) (HPC)
[8] = dose: 200.0 mg/kg/injection, schedule: Q04DX002 (ip), vehicle: Klucel (hydroxypropylcellulose) (HPC)
[9] = dose: 400.0 mg/kg/injection, schedule: Q04DX002 (ip), vehicle: Klucel (hydroxypropylcellulose) (HPC)
[10] = dose: 100.0 mg/kg/injection, schedule: Q04DX003 (ip), vehicle: saline with Tween-80
[11] = dose: 200.0 mg/kg/injection, schedule: Q04DX003 (ip), vehicle: saline with Tween-80
[12] = dose: 400.0 mg/kg/injection, schedule: Q04DX003 (ip), vehicle: saline with Tween-80
[13] = dose: 50.0 mg/kg/injection, schedule: Q01DX009 (ip), vehicle: Klucel (hydroxypropylcellulose) (HPC)
[14] = dose: 100.0 mg/kg/injection, schedule: Q01DX001 (ip), vehicle: saline
[15] = dose: 200.0 mg/kg/injection, schedule: Q01DX001 (ip), vehicle: saline
[16] = dose: 400.0 mg/kg/injection, schedule: Q01DX001 (ip), vehicle: saline

Measured: T/C

OCCN1CCN(CCCN2c3ccccc3CCc3ccccc32)CC1
inactive: dose: 12.5 mg/kg/injection, schedule: Q04DX003 (ip), vehicle: saline 98 % of control | dose: 15.62 mg/kg/injection, schedule: Q04DX003 (ip), vehicle: saline 100 % of control | dose: 25.0 mg/kg/injection, schedule: Q04DX003 (ip), vehicle: saline 106 % of control | dose: 31.25 mg/kg/injection, schedule: Q04DX003 (ip), vehicle: saline 103 % of control | dose: 50.0 mg/kg/injection, schedule: Q04DX003 (ip), vehicle: saline 104 % of control | dose: 62.5 mg/kg/injection, schedule: Q04DX003 (ip), vehicle: saline 105 % of control | dose: 100.0 mg/kg/injection, schedule: Q04DX003 (ip), vehicle: saline 104 % of control | dose: 125.0 mg/kg/injection, schedule: Q04DX003 (ip), vehicle: saline 92 % of control

N#CC(C#N)=Cc1c2ccccc2cc2ccccc12
inactive: dose: 100.0 mg/kg/injection, schedule: Q04DX003 (ip), vehicle: Klucel (hydroxypropylcellulose) (HPC) 94 % of control | dose: 200.0 mg/kg/injection, schedule: Q04DX003 (ip), vehicle: Klucel (hydroxypropylcellulose) (HPC) 91 % of control | dose: 400.0 mg/kg/injection, schedule: Q04DX003 (ip), vehicle: Klucel (hydroxypropylcellulose) (HPC) 112 % of control

C=C1C(=O)OC2CC(C)C3CC(OCCCl)OC(OCCCl)C3(C)CC12 (stereo unspecified)
inactive: dose: 1.25 mg/kg/injection, schedule: Q01DX005 (ip), vehicle: other 104 % of control | dose: 2.5 mg/kg/injection, schedule: Q01DX005 (ip), vehicle: other 106 % of control | dose: 5.0 mg/kg/injection, schedule: Q01DX005 (ip), vehicle: other 101 % of control | dose: 10.0 mg/kg/injection, schedule: Q01DX005 (ip), vehicle: other 101 % of control | dose: 20.0 mg/kg/injection, schedule: Q01DX005 (ip), vehicle: other 113 % of control

NC(CC(O)c1ccccc1)c1ccccc1 (stereo unspecified)
inactive: dose: 75.0 mg/kg/injection, schedule: Q01DX001 (ip), vehicle: carboxymethylcellulose (CMC) 96 % of control

C[N+](C)(C)CCCNC(=O)Nc1ccc(Cl)cc1
inactive: dose: 3.13 mg/kg/injection, schedule: Q04DX002 (ip), vehicle: saline 102 % of control | dose: 6.25 mg/kg/injection, schedule: Q04DX002 (ip), vehicle: saline 117 % of control | dose: 12.5 mg/kg/injection, schedule: Q04DX002 (ip), vehicle: saline 106 % of control

CCCCCCCCCCCCOCN1C(=O)N(COCCCCCCCCCCCC)C(=O)C(CC)(c2ccccc2)C1=O
inactive: [1] 97 % of control | [2] 94 % of control | [3] 94 % of control

O=C1C=C(N2CCCC2)CC1
inactive: dose: 75.0 mg/kg/injection, schedule: Q01DX001 (ip), vehicle: saline 101 % of control | dose: 150.0 mg/kg/injection, schedule: Q01DX001 (ip), vehicle: saline 104 % of control

CCOC(=O)CC(C(=O)O)=C(c1ccccc1)c1ccccc1
inactive: dose: 50.0 mg/kg/injection, schedule: Q01DX001 (ip), vehicle: carboxymethylcellulose (CMC) 98 % of control | [4] 98 % of control | [5] 93 % of control | [6] 93 % of control

COc1cc(F)cc([N+](=O)[O-])c1
inactive: [4] 95 % of control | [5] 97 % of control | [6] 97 % of control

O=C(Nc1ccccc1-c1ccccc1)c1ccc(Cl)cc1Cl
inactive: [7] 104 % of control | [8] 93 % of control | [9] 101 % of control

CC(CN)OCc1ccccc1 (stereo unspecified)
inactive: dose: 12.5 mg/kg/injection, schedule: Q01DX009 (ip), vehicle: saline 97 % of control | dose: 25.0 mg/kg/injection, schedule: Q01DX009 (ip), vehicle: saline 99 % of control | dose: 50.0 mg/kg/injection, schedule: Q01DX009 (ip), vehicle: saline 104 % of control

C(=N\N=C\c1cccs1)/c1cccs1
inactive: [10] 98 % of control | [11] 98 % of control | [12] 95 % of control

CN(C(=O)c1n[nH]c2ccccc12)c1ccccc1
inactive: dose: 50.0 mg/kg/injection, schedule: Q04DX002 (ip), vehicle: Klucel (hydroxypropylcellulose) (HPC) 101 % of control | [7] 108 % of control | [8] 101 % of control

CCOC(CNC(=O)c1cccc([N+](=O)[O-])c1)OCC
inactive: [13] 87 % of control | dose: 100.0 mg/kg/injection, schedule: Q01DX009 (ip), vehicle: Klucel (hydroxypropylcellulose) (HPC) 98 % of control | dose: 200.0 mg/kg/injection, schedule: Q01DX009 (ip), vehicle: Klucel (hydroxypropylcellulose) (HPC) 102 % of control

O=[N+]([O-])/C=C/C(Cl)(Cl)Cl
inactive: dose: 6.25 mg/kg/injection, schedule: Q01DX009 (ip), vehicle: Klucel (hydroxypropylcellulose) (HPC) 101 % of control | dose: 12.5 mg/kg/injection, schedule: Q01DX009 (ip), vehicle: Klucel (hydroxypropylcellulose) (HPC) 108 % of control | dose: 25.0 mg/kg/injection, schedule: Q01DX009 (ip), vehicle: Klucel (hydroxypropylcellulose) (HPC) 97 % of control | [13] 95 % of control

Cc1cccc(Nc2nc(N)nc(N)c2N=O)c1
inactive: dose: 100.0 mg/kg/injection, schedule: Q01DX Z (ip), vehicle: methylcellulose (MC) 102 % of control | [7] 101 % of control | dose: 200.0 mg/kg/injection, schedule: Q01DX Z (ip), vehicle: methylcellulose (MC) 97 % of control | [8] 94 % of control | [9] 101 % of control

CN1C(=O)c2ccccc2NC(=O)C12OC2c1ccccc1 (stereo unspecified)
inactive: [14] 101 % of control | [15] 101 % of control | [16] 97 % of control

CCCCC(=O)NS(=O)(=O)c1ccccc1
inactive: [1] 92 % of control | [10] 94 % of control | [2] 105 % of control | [11] 101 % of control | [3] 107 % of control | [12] 94 % of control

CC(NC(=O)C(CCC(=O)O)NC(=O)C(N)C(C)C)C(=O)NCC(=O)NC(C(=O)NC(CCC(=O)O)C(=O)NC(C)C(=O)NCC(=O)NCC(=O)O)C(C)C (stereo unspecified) (H-VEAGVEAGG-OH; configuration not given here)
inactive: dose: 50.0 mg/kg/injection, schedule: Q01DX001 (ip), vehicle: saline 93 % of control | [14] 95 % of control | [15] 91 % of control

O=c1[nH]cc(COCC(F)(F)C(F)(F)C(F)(F)F)c(=O)[nH]1
inactive: dose: 50.0 mg/kg/injection, schedule: Q01DX005 (ip), vehicle: water 104 % of control | dose: 100.0 mg/kg/injection, schedule: Q01DX005 (ip), vehicle: water 93 % of control | dose: 200.0 mg/kg/injection, schedule: Q01DX005 (ip), vehicle: water 95 % of control | dose: 400.0 mg/kg/injection, schedule: Q01DX005 (ip), vehicle: water 87 % of control

O=[N+]([O-])c1cc2c3c(cccc3c1)CC2
inactive: [14] 95 % of control and 97 % of control | dose: 100.0 mg/kg/injection, schedule: Q04DX002 (ip), vehicle: saline 105 % of control | [15] 100 % of control | dose: 200.0 mg/kg/injection, schedule: Q04DX002 (ip), vehicle: saline 100 % of control | [16] 100 % of control and 110 % of control | dose: 400.0 mg/kg/injection, schedule: Q04DX002 (ip), vehicle: saline 101 % of control

Cc1cc(C)c2nc(Cl)cc(C)c2c1
inactive: [14] 91 % of control | [15] 91 % of control | [16] 104 % of control

Cc1c(C)c(C)c(CCl)c(CCl)c1C
inactive: [7] 97 % of control | [8] 90 % of control | [9] 122 % of control

COc1ccccc1-n1c(O)c(N=Nc2ccc(Br)cc2)c(=O)n(-c2ccc(Cl)cc2)c1=S
inactive: dose: 100.0 mg/kg/injection, schedule: Q01DX001 (ip), vehicle: Klucel (hydroxypropylcellulose) (HPC) 101 % of control | dose: 200.0 mg/kg/injection, schedule: Q01DX001 (ip), vehicle: Klucel (hydroxypropylcellulose) (HPC) 107 % of control
